For assay [1], the system named is karpas 299 cells. Briefly: Measurement of inhibition of cell proliferation (Karpas), ATPlite. The format is cell-based. On the procedure:
Measurement of Inhibition of Cell Proliferation (Karpas):
The antiproliferative activities of the compounds were measured using the ATPlite technique (Perkin Elmer).
The non-adhering cells (karpas 299) are seeded in 96-well plates (300 000 cells/ml) on Day 1 at a concentration compatible with logarithmic growth for 72 hours required for evaluation of the compounds. All the cells are treated on Day 1, then placed in an incubator at 37° C. under 5% CO2 atmosphere. Cell viability is evaluated on Day 4 by assay of released ATP, characteristic of viable cells. The IC50 values are determined by non-linear regression on the basis of a sigmoid model of dose/response relationship, Hill's slope coefficient being left variable, performed using GraphPad software sequence with the supplied algorithm.
(In general: In ATP-based viability assays light output follows the ATP content of the culture.)

Assay [2] concerns the target ALK kinase (Homo sapiens, UniProt Q9UM73). Briefly: Test to measure ALK kinase inhibition (GST-PLCγ1 substrate, anti-phosphotyrosine ELISA, luminescence). The conditions noted are these: ALK kinase 180 ng/ml, 250 μM ATP, 30 minutes at 30° C. The format is biochemical. How it is done: Test to Measure ALK Kinase Inhibition
A ViewPlate (Packard) is incubated with the GST-PLCγ1 substrate (purified recombinant form) at 0.1 mg/ml in phosphate buffer (PBS pH 7.4)(100 μl/well) for one hour under shaking. The plate is then saturated with a blocking solution containing 5% bovine serum albumin (BSA) (SIGMA) in PBS buffer pH 7.4.
After adding the inhibitor at the desired final concentration (usual range of 30 μM to 10 nM), the reaction is conducted by adding the ALK kinase at 180 ng/ml in 13 mM Tris reaction buffer pH 7.5 (SIGMA); 6.5 mM MgCl2 (MERCK); 0.65 mM DiThioThreitol (DTT) (ACROS); 39 mM sodium β-glycerophosphate (TCI); 0.65 mM sodium orthovanadate (SIGMA) and 250 μM ATP (SIGMA). Incubation is carried out for 30 minutes at 30° C. under shaking.
After three washings under shaking in 0.1% PBS/Tween-20 buffer (SIGMA), an anti-phosphotyrosine antibody coupled with HRP (UBI) diluted to 1/1000th in PBS/BSA buffer 5 mg/ml, is incubated for one hour under shaking. After three further washings in 0.1% PBS/Tween-20, the wells are incubated two minutes with 100 μl of SuperSignal ELISA mixture (PIERCE).
The signal is read in luminescent mode using a luminometer (MOLECULAR DEVICES SpectraMax M5e).
(In general: An ELISA detects its analyte on a solid surface through an enzyme-linked reagent.)

The structures appear in SMILES notation.

Chain of ALK kinase (Q9UM73 19-1620): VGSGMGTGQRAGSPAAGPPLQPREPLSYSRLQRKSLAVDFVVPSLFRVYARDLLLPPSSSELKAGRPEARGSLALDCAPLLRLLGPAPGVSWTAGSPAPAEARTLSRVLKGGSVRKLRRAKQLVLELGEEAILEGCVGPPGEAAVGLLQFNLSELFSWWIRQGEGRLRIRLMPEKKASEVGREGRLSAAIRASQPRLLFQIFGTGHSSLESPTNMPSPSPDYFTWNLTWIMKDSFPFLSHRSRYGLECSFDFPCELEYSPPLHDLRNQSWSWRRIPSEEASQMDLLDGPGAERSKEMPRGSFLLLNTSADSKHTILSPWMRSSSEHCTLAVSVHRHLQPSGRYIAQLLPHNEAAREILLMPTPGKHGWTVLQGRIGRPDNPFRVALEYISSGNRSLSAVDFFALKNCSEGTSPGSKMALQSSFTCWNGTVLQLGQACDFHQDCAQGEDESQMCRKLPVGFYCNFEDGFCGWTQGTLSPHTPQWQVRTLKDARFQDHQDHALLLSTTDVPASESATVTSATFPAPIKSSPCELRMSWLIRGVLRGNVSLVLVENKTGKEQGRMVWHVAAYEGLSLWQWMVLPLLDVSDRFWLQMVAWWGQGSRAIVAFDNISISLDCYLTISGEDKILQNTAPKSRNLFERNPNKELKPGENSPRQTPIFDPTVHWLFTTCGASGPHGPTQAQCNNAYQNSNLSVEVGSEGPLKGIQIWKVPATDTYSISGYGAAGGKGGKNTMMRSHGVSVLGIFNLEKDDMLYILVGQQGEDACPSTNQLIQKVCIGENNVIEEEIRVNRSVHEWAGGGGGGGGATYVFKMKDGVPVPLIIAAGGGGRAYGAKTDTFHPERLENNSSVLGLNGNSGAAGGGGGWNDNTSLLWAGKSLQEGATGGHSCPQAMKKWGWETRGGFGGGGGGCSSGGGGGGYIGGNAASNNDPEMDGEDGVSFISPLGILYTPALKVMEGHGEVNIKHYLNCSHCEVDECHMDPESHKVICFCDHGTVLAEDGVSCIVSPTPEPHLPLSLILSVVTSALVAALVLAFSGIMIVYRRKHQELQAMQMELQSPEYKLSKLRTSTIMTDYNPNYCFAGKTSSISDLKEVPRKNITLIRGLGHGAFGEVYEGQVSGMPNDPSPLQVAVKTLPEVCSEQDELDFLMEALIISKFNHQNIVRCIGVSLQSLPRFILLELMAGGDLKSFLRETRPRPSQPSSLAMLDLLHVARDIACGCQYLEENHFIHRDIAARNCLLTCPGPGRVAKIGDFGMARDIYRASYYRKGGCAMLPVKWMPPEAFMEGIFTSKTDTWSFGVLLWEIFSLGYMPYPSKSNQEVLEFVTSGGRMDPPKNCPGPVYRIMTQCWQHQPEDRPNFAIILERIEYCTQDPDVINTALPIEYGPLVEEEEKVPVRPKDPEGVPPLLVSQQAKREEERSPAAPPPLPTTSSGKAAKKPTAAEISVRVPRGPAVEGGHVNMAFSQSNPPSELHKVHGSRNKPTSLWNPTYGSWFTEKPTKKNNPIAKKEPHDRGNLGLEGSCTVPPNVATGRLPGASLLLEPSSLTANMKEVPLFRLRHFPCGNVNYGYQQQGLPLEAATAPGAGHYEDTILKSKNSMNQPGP

As a reminder, the IC50 is the concentration that gives 50% inhibition. A high value points to weaker potency. For `N#Cc1c(-c2ccc(O)cc2)nc2[nH]ncc2c1-c1ccc(O)cc1` [Compound 17], the IC50 in assay [1] (Homo sapiens, KARPAS-299, 72 h) lay in the range of 1000 to 10000 nM; in assay [2], 100 to 1000 nM. Regarding `Cc1n[nH]c2nc(-c3ccc(O)cc3)c(C#N)c(-c3ccc(O)cc3)c12` [Compound 19], the IC50 in assay [1] (Homo sapiens, KARPAS-299, 72 h) was 1000 to 10000 nM; in assay [2], 100 to 1000 nM. For `N#Cc1c(-c2ccc(O)cc2)nc2[nH]ncc2c1-c1ccco1` [Compound 44] the same measures were 100 to 1000 nM and under 100 nM. For `N#Cc1c(-c2ccc(O)cc2)nc2[nH]ncc2c1-c1ccoc1` [Compound 45] the same measures were 1000 to 10000 nM and 100 to 1000 nM. As for `CN1CCN(Cc2ccc(-c3c(C#N)c(-c4ccc(O)cc4)nc4[nH]ncc34)cc2)CC1` [Compound 47], the IC50 in assay [1] (Homo sapiens, KARPAS-299, 72 h) is 1000 to 10000 nM; in assay [2], 1000 to 10000 nM. On to `N#Cc1c(-c2ccc(O)cc2)nc2[nH]ncc2c1-c1nccs1` [Compound 48], for which the IC50 is 1000 to 10000 nM in assay [1] (Homo sapiens, KARPAS-299, 72 h) and 100 to 1000 nM in assay [2]. Turning to `N#Cc1c(-c2ccc(O)cc2)nc2[nH]ncc2c1-c1ccsc1` [Compound 50], the IC50 in assay [1] (Homo sapiens, KARPAS-299, 72 h) is 1000 to 10000 nM; in assay [2], 100 to 1000 nM. For `N#Cc1c(-c2ccc(O)cc2)nc2[nH]ncc2c1-c1cccs1` [Compound 52], the IC50 in assay [1] (Homo sapiens, KARPAS-299, 72 h) lay in the range of 1000 to 10000 nM; in assay [2], 100 to 1000 nM.

For `N#Cc1c(-c2ccc(O)cc2)nc2[nH]ncc2c1-c1ccc(CN)cc1` [Compound 53], the IC50 in assay [1] (Homo sapiens, KARPAS-299, 72 h) lay within 1000 to 10000 nM; in assay [2], 100 to 1000 nM. Regarding `N#Cc1c(-c2ccc(O)cc2)nc2[nH]ncc2c1-c1ccc(Cn2ccnc2)cc1` [Compound 54], the IC50 in assay [1] (Homo sapiens, KARPAS-299, 72 h) was over 10000 nM; in assay [2], 1000 to 10000 nM. On to `N#Cc1c(-c2ccc(O)cc2)nc2[nH]ncc2c1-c1ccc(N2CCNCC2)cc1` [Compound 59], for which the IC50 in assay [1] (Homo sapiens, KARPAS-299, 72 h) lay in the range of 1000 to 10000 nM; in assay [2] it was 100 to 1000 nM. On to `N#Cc1c(-c2ccc(O)cc2)nc2[nH]ncc2c1-c1cccc(N2CCNCC2)c1` [Compound 68], for which the IC50 lay in the range of 1000 to 10000 nM in assay [1] (Homo sapiens, KARPAS-299, 72 h) and 100 to 1000 nM in assay [2]. In assay [2], `N#Cc1c(-c2ccc(O)cc2)nc2[nH]ncc2c1-c1ccc(OCCN2CCOCC2)cc1` [Compound 73] returned an IC50 of 100 to 1000 nM. As to `COc1cc(-c2cc3[nH]ncc3c(-c3ccco3)c2C#N)ccc1O` [Compound 74], in assay [2], the IC50 was 100 to 1000 nM.

Turning to `N#Cc1c(-c2ccc(O)cc2F)nc2[nH]ncc2c1-c1ccco1` [Compound 75], the IC50 in assay [1] (Homo sapiens, KARPAS-299, 72 h) was 100 to 1000 nM; in assay [2] it was under 100 nM.

For the compound `N#Cc1c(-c2ccc(O)c(F)c2)cc2[nH]ncc2c1-c1ccco1` [Compound 76], the IC50 in assay [1] (Homo sapiens, KARPAS-299, 72 h) was in the range of 1000 to 10000 nM; in assay [2], 100 to 1000 nM. In the same order, the values of `N#Cc1c(-c2ccc(O)cc2F)nc2[nH]ncc2c1-c1ccc(CO)o1` [Compound 77] are 1000 to 10000 nM and 100 to 1000 nM. As for `Cc1n[nH]c2nc(-c3ccc(O)cc3)c(C#N)c(-c3ccco3)c12` [Compound 78], the IC50 in assay [1] (Homo sapiens, KARPAS-299, 72 h) was 1000 to 10000 nM; in assay [2], 100 to 1000 nM. For the compound `Cc1n[nH]c2cc(-c3ccc(O)cc3F)c(C#N)c(-c3ccc(CN)o3)c12` [Compound 80], the IC50 in assay [1] (Homo sapiens, KARPAS-299, 72 h) was in the range of 1000 to 10000 nM; in assay [2], 100 to 1000 nM. As for `Cc1n[nH]c2cc(-c3ccc(O)cc3F)c(C#N)c(-c3ccco3)c12` [Compound 81], the half-maximal inhibitory concentration (IC50) in assay [1] (Homo sapiens, KARPAS-299, 72 h) was 100 to 1000 nM; in assay [2], under 100 nM.

`CN1CCN(c2ccc(-c3c(C#N)c(-c4ccc(O)cc4)nc4[nH]ncc34)o2)CC1` [Compound 82]: the IC50 in assay [1] (Homo sapiens, KARPAS-299, 72 h) was 1000 to 10000 nM; in assay [2], 100 to 1000 nM. For the compound `CN1CCN(c2ccc(-c3c(C#N)c(-c4ccc(O)cc4F)nc4[nH]ncc34)o2)CC1` [Compound 83], the IC50 in assay [1] (Homo sapiens, KARPAS-299, 72 h) was 100 to 1000 nM; in assay [2], under 100 nM. In the same order, the values of `N#Cc1c(-c2ccc(O)cc2F)nc2[nH]ncc2c1-c1ccc(CN2CCOCC2)o1` [Compound 84] are 1000 to 10000 nM and 100 to 1000 nM. In the case of `CN1CCN(Cc2ccc(-c3c(C#N)c(-c4ccc(O)cc4F)nc4[nH]ncc34)o2)CC1` [Compound 85], the IC50 in assay [1] (Homo sapiens, KARPAS-299, 72 h) was in the range of 1000 to 10000 nM; in assay [2], 100 to 1000 nM. For `N#Cc1c(-c2ccc(O)cc2F)nc2[nH]ncc2c1-c1ccc(N2CCOCC2)o1` [Compound 86] the same measures were 1000 to 10000 nM and under 100 nM.

Regarding `Cc1n[nH]c2nc(-c3ccc(O)cc3F)c(C#N)c(-c3ccc(N4CCNCC4)cc3)c12` [Compound 88], the IC50 in assay [1] (72 hours) was 100 to 1000 nM; in assay [2] it was under 100 nM. Take `Cc1n[nH]c2nc(-c3cc(Br)c(O)c(Br)c3F)c(C#N)c(-c3ccco3)c12` [Compound 90]: the IC50 in assay [1] (Homo sapiens, KARPAS-299, 72 h) is over 10000 nM; in assay [2] it was 1000 to 10000 nM. Take `N#Cc1c(-c2ccc(O)cc2F)nc2[nH]ncc2c1-c1ccc(N2CCNCC2)cc1` [Compound 91]: the IC50 in assay [1] (Homo sapiens, KARPAS-299, 72 h) was 1000 to 10000 nM; in assay [2], under 100 nM.

Turning to `Cc1ccc(-c2c(C#N)c(-c3ccc(O)cc3F)nc3[nH]ncc23)o1` [Compound 92], the IC50 in assay [1] (Homo sapiens, KARPAS-299, 72 h) was 100 to 1000 nM; in assay [2], under 100 nM. As to `N#Cc1c(-c2ccc(O)cc2F)nc2[nH]nc(N)c2c1-c1ccco1` [Compound 93], the IC50 was 100 to 1000 nM in assay [1] (Homo sapiens, KARPAS-299, 72 h) and over 10000 nM in assay [2]. In the same order, the values of `Cc1c(C#N)c(-c2ccc(O)cc2)nc2[nH]nc(-c3ccc(N4CCNCC4)cc3)c12` [Compound 96] are 1000 to 10000 nM and 100 to 1000 nM. Take `N#Cc1c(-c2ccc(O)cc2F)nc2[nH]ncc2c1-c1ccc(-c2nn[nH]n2)cc1` [Compound 101]: the IC50 in assay [1] (Homo sapiens, KARPAS-299, 72 h) lay in the range of 1000 to 10000 nM; in assay [2], 1000 to 10000 nM. As for `N#Cc1cc2c(-c3ccc(N4CCNCC4)cc3)n[nH]c2nc1-c1ccc(O)cc1` [Compound 102], the IC50 in assay [1] (Homo sapiens, KARPAS-299, 72 h) is 100 to 1000 nM; in assay [2], under 100 nM. Consider `Cc1c(C#N)c(-c2ccc(O)cc2)nc2[nH]nc(-c3ccnc(N4CCN(C)CC4)c3)c12` [Compound 103], for which the IC50 in assay [1] (Homo sapiens, KARPAS-299, 72 h) was over 10000 nM; in assay [2] it was 100 to 1000 nM. As to `CN1CCN(c2ccc(-c3c(C#N)c(-c4ccc(O)cc4F)nc4[nH]nc(N)c34)o2)CC1` [Compound 104], the IC50 in assay [1] (Homo sapiens, KARPAS-299, 72 h) was 1000 to 10000 nM; in assay [2] it was under 100 nM. For `N#Cc1cc2c(N)n[nH]c2nc1-c1ccc(O)cc1F` [Compound 105], the IC50 fell in the range of 1000 to 10000 nM in assay [1] (Homo sapiens, KARPAS-299, 72 h) and 100 to 1000 nM in assay [2]. As for `Cc1c(C#N)c(-c2ccc(O)cc2)nc2[nH]nc(-c3cccc(N4CCNCC4)c3)c12` [Compound 106], the IC50 fell in the range of 1000 to 10000 nM in assay [1] (Homo sapiens, KARPAS-299, 72 h) and 100 to 1000 nM in assay [2]. Take `Cc1c(C#N)c(-c2ccc(O)cc2F)nc2[nH]nc(-c3csc(C4CCNCC4)n3)c12` [Compound 108]: the IC50 in assay [1] (Homo sapiens, KARPAS-299, 72 h) was 1000 to 10000 nM; in assay [2] it was under 100 nM. In turn, `Cc1n[nH]c2nc(Cc3ccc(F)cc3F)c(C#N)c(-c3ccc(N4CCNCC4)cc3F)c12` [Compound 302] yielded an IC50 in assay [2] of over 10000 nM. Same read-out and setting: to `N#Cc1c(-c2ccc(O)cc2)nc2[nH]nc(N)c2c1-c1ccc(N2CCNCC2)cc1` [Compound 303] belongs 1000 to 10000 nM. Regarding `N#Cc1c(-c2ccc(OC(=O)c3ccccc3)cc2F)nc2[nH]nc(N)c2c1-c1ccc(N2CCNCC2)cc1` [Compound 304], the IC50 in assay [2] lay within 1000 to 10000 nM.

As to `COC(=O)c1c(-c2ccc(O)cc2)nc2[nH]nc(N)c2c1-c1ccc(N2CCNCC2)cc1` [Compound 305], in assay [2], the IC50 was under 100 nM. In turn, `COC(=O)c1c(-c2ccc(OC(=O)C3CC3)cc2F)nc2[nH]nc(C)c2c1-c1ccc(N2CCNCC2)cc1` [Compound 306] yielded an IC50 in assay [2] of under 100 nM. On to `COC(=O)c1c(-c2ccc(O)cc2)nc2[nH]nc(N)c2c1-c1ccc(N2CCN(C)CC2)cc1` [Compound 307], for which, in assay [2], the IC50 was under 100 nM.

Values taken from US8889711B2, “Pyrazolopyridine derivatives as anticancer agent” (Pierre Fabre Medicament, priority 2009, dated 2014).
